One may read the IC90 as the concentration needed for an effect of 90%.

Test [1] relates to tubulin. Description: Tubulin polymerization inhibition. Particulars: 100 μM. It counts as biochemical, mammalian.
Test [2] deals with Mtb H37Rv. Put plainly: Mtb H37Rv growth inhibition. The class given is cell-based, Mycobacterium tuberculosis.

For `CCOC(=O)Nc1nc(NC(C)CCCN(CC)CC)c2nc(-c3ccccc3)c(-c3ccccc3)nc2n1` (centres unmarked) [Compound 2, reference compound], the “Tubulin Polymerization inhibition” value in test [1] is 24% inhibition 100 μM.

As for `CCOC(=O)Nc1cc(NCCCCN(CC)CC)c2nc(-c3ccccc3)c(-c3ccccc3)nc2n1` [Compound 17, Ethyl (8-((4-(diethylamino)butyl)amino)-2,3-diphenylpyrido[2,3-b]pyrazin-6-yl)carbamate], the “Tubulin Polymerization inhibition” value in test [1] is given as 40% inhibition 100 μM. Turning to `CCOC(=O)Nc1nc(NC(C)CCCN(CC)CC)c2c(n1)SC(c1ccccc1)C(c1ccccc1)=N2` (centres unmarked) [Compound 37, Ethyl (4-((5-(diethylamino)pentan-2-yl)amino)-6,7-diphenyl-7H-pyrimido[4,5-b][1,4]thiazin-2-yl) carbamate], the “IC90 (H37Rv) fold less active than lead compound 2” value in test [2] was found to be 10 fold. As for `CCOC(=O)Nc1nc(NCCCCN(CC)CC)c2c(n1)SC(c1ccccc1)C(c1ccccc1)=N2` (centres unmarked) [Compound 38, Ethyl (4-((4-(diethylamino)butyl)amino)-6,7-diphenyl-7H-pyrimido[4,5-b][1,4]thiazin-2-yl)carbamate], the “IC90 (H37Rv) fold less active than lead compound 2” value in test [2] is 10 fold. Besides, the IC90 in test [2] (Mycobacterium tuberculosis, H37RV, read-out: Mtb H37Rv IC90, extrapolated from 10 point dose response curve) is 18.5 µM.

These data come from article PMC3216299 (Bioorganic & medicinal chemistry, 2011).
